Assay results from patent US11053213B2, “Pharmaceutical compounds” (ALMAC DISCOVERY LIMITED, priority 2016, dated 2021).

What follows are compounds tested against USP19 (Homo sapiens (Human), UniProt O94966) (assay: USP19 activity assay (fluorescence polarisation, Ubiquitin-Lys-TAMRA substrate)). Details: full-length USP19 2.5 nM, 30 min pre-incubation, Ub substrate 500 nM; average of at least two duplicate experiments.
Assay type: biochemical
Method: Unless otherwise stated, all other reagents were purchased from Sigma. Enzymatic reactions were conducted in black flat bottom polystyrene 384-well plates (Nunc) and 30 μL total volume. […] Inhibitors were stored as 10 mM DMSO stocks in an inert environment (low humidity, dark, low oxygen, room temperature) using the Storage Pod System and serial dilutions were prepared in buffer just prior to the assay (from 200 μM to 2 pM, 8-18 data point curve). Following incubation at RT for 30 min, the enzymatic reactions were initiated by dispensing the Ub substrate (500 nM, 10 μL). FP was measured every 15 min over a period of 90 min (within the linear range of the assay) using a Synergy 4 plate reader (BioTek) exciting at 530 nm and measuring the amount of parallel and perpendicular light at 575 nm. The FP signal was subsequently normalised to the no compound control.

Chain of USP19 (O94966 whole entry): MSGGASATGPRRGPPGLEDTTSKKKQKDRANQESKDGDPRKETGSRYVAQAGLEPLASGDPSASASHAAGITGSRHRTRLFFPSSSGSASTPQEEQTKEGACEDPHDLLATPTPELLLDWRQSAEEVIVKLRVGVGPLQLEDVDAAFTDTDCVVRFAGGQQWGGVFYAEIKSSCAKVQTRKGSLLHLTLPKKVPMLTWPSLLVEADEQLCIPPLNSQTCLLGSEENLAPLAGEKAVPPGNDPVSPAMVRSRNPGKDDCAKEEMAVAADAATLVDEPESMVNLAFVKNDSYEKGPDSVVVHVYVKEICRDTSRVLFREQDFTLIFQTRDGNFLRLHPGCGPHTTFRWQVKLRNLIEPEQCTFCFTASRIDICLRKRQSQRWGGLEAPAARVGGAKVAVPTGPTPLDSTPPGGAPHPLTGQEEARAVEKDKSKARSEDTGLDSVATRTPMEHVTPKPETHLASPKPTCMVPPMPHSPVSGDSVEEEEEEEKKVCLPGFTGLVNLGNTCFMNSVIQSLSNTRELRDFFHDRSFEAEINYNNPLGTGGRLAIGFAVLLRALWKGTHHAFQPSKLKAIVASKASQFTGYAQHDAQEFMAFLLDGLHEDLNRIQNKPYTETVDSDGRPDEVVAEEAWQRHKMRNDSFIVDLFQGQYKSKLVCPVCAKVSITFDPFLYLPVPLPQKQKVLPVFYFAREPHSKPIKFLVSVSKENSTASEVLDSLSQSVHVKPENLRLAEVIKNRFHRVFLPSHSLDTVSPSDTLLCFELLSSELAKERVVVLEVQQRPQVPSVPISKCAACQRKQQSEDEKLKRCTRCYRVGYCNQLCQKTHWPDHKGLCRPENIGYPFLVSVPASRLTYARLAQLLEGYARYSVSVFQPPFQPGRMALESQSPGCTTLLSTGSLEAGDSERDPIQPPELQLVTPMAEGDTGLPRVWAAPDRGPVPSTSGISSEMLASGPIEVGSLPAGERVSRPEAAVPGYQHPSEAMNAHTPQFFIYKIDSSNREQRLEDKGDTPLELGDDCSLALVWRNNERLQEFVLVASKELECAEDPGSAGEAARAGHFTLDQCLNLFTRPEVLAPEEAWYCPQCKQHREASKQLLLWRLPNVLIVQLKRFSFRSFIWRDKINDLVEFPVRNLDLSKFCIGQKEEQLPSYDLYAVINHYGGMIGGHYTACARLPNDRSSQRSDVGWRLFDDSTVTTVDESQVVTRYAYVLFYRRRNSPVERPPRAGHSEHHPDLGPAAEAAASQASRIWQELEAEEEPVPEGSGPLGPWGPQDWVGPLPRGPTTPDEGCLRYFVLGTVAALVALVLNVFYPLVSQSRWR

IC50	Compound
5 to 50 µM	CC1(C)CN(C(=O)CCc2ccccc2)CCC1(O)Cn1cnc(-c2ccccc2F)cc1=O (racemic) [Example 68, (R,S)-6-(2-Fluorophenyl)-3-((4-hydroxy-3,3-dimethyl-1-(3-phenylpropanoyl)piperidin-4-yl)methyl)pyrimidin-4(3H)-one]
0.5 to 5 µM	C[C@H](CC1CCCCC1)C(=O)N1CCC(O)(Cn2cnc(-c3ccn[nH]3)cc2=O)C(C)(C)C1 (stereo partly drawn) [Example 133, 3-((1-((R)-3-Cyclohexyl-2-methylpropanoyl)-4-hydroxy-3,3-dimethylpiperidin-4-yl)methyl)-6-(1H-pyrazol-5-yl)pyrimidin-4(3H)-one]
5 to 50 µM	CCC(CC1CCCCC1)C(=O)N1CCC(O)(Cn2cnc(-c3ccccc3F)cc2=O)CC1 (stereo not shown) [Example 40, 3-((1-(2-(Cyclohexylmethyl)butanoyl)-4-hydroxypiperidin-4-yl)methyl)-6-(2-fluorophenyl)pyrimidin-4(3H)-one]
5 to 50 µM	CN(C)C(=O)c1cn(CC2(O)CCN(C(=O)C[C@@H](c3ccccc3)C(F)F)CC23CCCC3)c(=O)cc1-c1ccccc1 (stereo partly drawn) [Example 180, 1-((7-((S)-4,4-Difluoro-3-phenylbutanoyl)-10-hydroxy-7-azaspiro[4.5]decan-10-yl)methyl)-N,N-dimethyl-6-oxo-4-phenyl-1,6-dihydropyridine-3-carboxamide]
50 to 250 µM	C[C@H](CC(=O)N1CCC(O)(Cn2cnc(-c3ccccc3OC(F)(F)F)cc2=O)CC1)c1ccccc1 [Example 30, (R)-3-((4-Hydroxy-1-(3-phenylbutanoyl)piperidin-4-yl)methyl)-6-(2-(trifluoromethoxy)phenyl)pyrimidin-4(3H)-one]
50 to 250 µM	C[C@H](CC(=O)N1CCC(O)(Cn2cc(-c3ccccc3)c(N(C)C)cc2=O)CC1)c1ccccc1 [Example 11, (R)-4-(Dimethylamino)-1-((4-hydroxy-1-(3-phenylbutanoyl)piperidin-4-yl)methyl)-5-phenylpyridin-2(1H)-one]
50 to 250 µM	CCOC(=O)c1cn(CC2(O)CCN(C(=O)C[C@@H](C)c3ccccc3)CC2)c(=O)cc1-c1ccccc1 [Example 13, (R)-Ethyl 1-((4-hydroxy-1-(3-phenylbutanoyl)piperidin-4-yl)methyl)-6-oxo-4-phenyl-1,6-dihydropyridine-3-carboxylate]
5 to 50 µM	CN(C)C(=O)c1cn(CC2(O)CCN(C(=O)c3ncoc3C3CC3)CC23CCCC3)c(=O)cc1-c1ccccc1 (stereo not shown) [Example 193, 1-((7-(5-Cyclopropyloxazole-4-carbonyl)-10-hydroxy-7-azaspiro[4.5]decan-10-yl)methyl)-N,N-dimethyl-6-oxo-4-phenyl-1,6-dihydropyridine-3-carboxamide]
< 0.5 µM	C[C@H](CC1CCCCC1)C(=O)N1CC[C@@](O)(Cn2cc(C(=O)N3CCCC3)c(-c3ccccc3)cc2=O)C(C)(C)C1 [Example 123, 1-(((S)-1-((R)-3-Cyclohexyl-2-methylpropanoyl)-4-hydroxy-3,3-dimethylpiperidin-4-yl)methyl)-4-phenyl-5-(pyrrolidine-1-carbonyl)pyridin-2(1H)-one]
50 to 250 µM	O=C(CCc1ccccc1)N1CCC(O)(Cn2cnc(-c3ccccc3F)cc2=O)CC1 [Example 2, 6-(2-Fluorophenyl)-3-((4-hydroxy-1-(3-phenylpropanoyl)piperidin-4-yl)methyl)pyrimidin-4(3H)-one]
5 to 50 µM	Cc1nc(-c2ccccc2)cc(=O)n1CC1(O)CCN(C(=O)C[C@@H](C)c2ccccc2)CC1 [Example 18, (R)-3-((4-Hydroxy-1-(3-phenylbutanoyl)piperidin-4-yl)methyl)-2-methyl-6-phenylpyrimidin-4(3H)-one]
0.5 to 5 µM	CCC(CC1CCCCC1)C(=O)N1CCC(O)(Cn2cnc(-c3ccccc3F)cc2=O)C(C)(C)C1 (stereo not shown) [Example 118, 3-((1-(2-(Cyclohexylmethyl)butanoyl)-4-hydroxy-3,3-dimethylpiperidin-4-yl)methyl)-6-(2-fluorophenyl)pyrimidin-4(3H)-one]
< 0.5 µM	COC[C@H](CC1CCCCC1)C(=O)N1CC[C@@](O)(Cn2cc(C(=O)N(C)C)c(-c3ccccc3)cc2=O)C(C)(C)C1 [Example 160, 1-(((S)-1-((S)-3-Cyclohexyl-2-(methoxymethyl)propanoyl)-4-hydroxy-3,3-dimethylpiperidin-4-yl)methyl)-N,N-dimethyl-6-oxo-4-phenyl-1,6-dihydropyridine-3-carboxamide]
0.5 to 5 µM	C[C@H](CC1CCCCC1)C(=O)N1CCC(O)(Cn2cnc(-c3cncnc3)cc2=O)C(C)(C)C1 (stereo partly drawn) [Example 130, 1-((1-((R)-3-Cyclohexyl-2-methylpropanoyl)-4-hydroxy-3,3-dimethylpiperidin-4-yl)methyl)-[4,5′-bipyrimidin]-6(1H)-one]
0.5 to 5 µM	CC1(C)CN(C(=O)[C@H](CO)CC2CCC2)CCC1(O)Cn1cnc(-c2ccccc2F)cc1=O (stereo partly drawn) [Example 200, 3-((1-((S)-3-Cyclobutyl-2-(hydroxymethyl)propanoyl)-4-hydroxy-3,3-dimethylpiperidin-4-yl)methyl)-6-(2-fluorophenyl)pyrimidin-4(3H)-one]
5 to 50 µM	CC(CC1CCC1)C(=O)N1CCC(O)(Cn2cnc(-c3ccccc3F)cc2=O)CC1 (racemic) [Example 57, (R,S)-3-((1-(3-Cyclobutyl-2-methylpropanoyl)-4-hydroxypiperidin-4-yl)methyl)-6-(2-fluorophenyl)pyrimidin-4(3H)-one]
0.5 to 5 µM	C[C@H](CC1CCCCC1)C(=O)N1CCC(O)(Cn2cnc(-c3ccc(CN)cc3)cc2=O)C(C)(C)C1 (stereo partly drawn) [Example 140, 6-(4-(Aminomethyl)phenyl)-3-((1-((R)-3-cyclohexyl-2-methylpropanoyl)-4-hydroxy-3,3-dimethylpiperidin-4-yl)methyl)pyrimidin-4(3H)-one]
< 0.5 µM	C[C@H](CC1CCCCC1)C(=O)N1CC[C@@](O)(Cn2cc(C(=O)N(C)C)c(-c3ccccc3F)cc2=O)C2(CCCC2)C1 [Example 226, 1-(((S)-7-((R)-3-Cyclohexyl-2-methylpropanoyl)-10-hydroxy-7-azaspiro[4.5]decan-10-yl)methyl)-4-(2-fluorophenyl)-N,N-dimethyl-6-oxo-1,6-dihydropyridine-3-carboxamide]
5 to 50 µM	C[C@H](CC(=O)N1CCC(O)(Cn2cc(C(=O)N(C)c3ccccc3)c(-c3ccccc3)cc2=O)CC1)c1ccccc1 [Example 107, (R)-1-((4-Hydroxy-1-(3-phenylbutanoyl)piperidin-4-yl)methyl)-N-methyl-6-oxo-N,4-diphenyl-1,6-dihydropyridine-3-carboxamide]
5 to 50 µM	C[C@H](CC(=O)N1CCC(O)(Cn2cc(-c3ccccc3C#N)c(-c3ccccc3)cc2=O)CC1)c1ccccc1 [Example 106, (R)-2-(1-((4-Hydroxy-1-(3-phenylbutanoyl)piperidin-4-yl)methyl)-6-oxo-4-phenyl-1,6-dihydropyridin-3-yl)benzonitrile]
5 to 50 µM	C[C@H](CC(=O)N1CCC(O)(Cn2cc(-c3cccnc3)c(-c3ccccc3)cc2=O)CC1)c1ccccc1 [Example 99, (R)-1-((4-Hydroxy-1-(3-phenylbutanoyl)piperidin-4-yl)methyl)-4-phenyl-[3,3′-bipyridin]-6(1H)-one]
5 to 50 µM	CC(CC(F)(F)F)C(=O)N1CCC(O)(Cn2cnc(-c3ccccc3F)cc2=O)C(C)(C)C1 (stereo not shown) [Example 143, 6-(2-Fluorophenyl)-3-((4-hydroxy-3,3-dimethyl-1-(4,4,4-trifluoro-2-methylbutanoyl)piperidin-4-yl)methyl)pyrimidin-4(3H)-one]
